{
  "source": "patent US6652890B2",
  "about": "“Tea catechins as cancer specific proliferation inhibitors” (Purdue Research Foundation, priority 1999, dated 2003)",
  "key": {"[1]": {"target": "T1, NADH oxidase of plasma membranes from MCF-10A human mammary epithelial (non-cancer) cells (Homo sapiens, UniProt Q8TC92)", "T1 construct": "endogenous in cells; host or cells: MCF-10A plasma membrane vesicles", "T1 sequence (Q8TC92 1-643)": "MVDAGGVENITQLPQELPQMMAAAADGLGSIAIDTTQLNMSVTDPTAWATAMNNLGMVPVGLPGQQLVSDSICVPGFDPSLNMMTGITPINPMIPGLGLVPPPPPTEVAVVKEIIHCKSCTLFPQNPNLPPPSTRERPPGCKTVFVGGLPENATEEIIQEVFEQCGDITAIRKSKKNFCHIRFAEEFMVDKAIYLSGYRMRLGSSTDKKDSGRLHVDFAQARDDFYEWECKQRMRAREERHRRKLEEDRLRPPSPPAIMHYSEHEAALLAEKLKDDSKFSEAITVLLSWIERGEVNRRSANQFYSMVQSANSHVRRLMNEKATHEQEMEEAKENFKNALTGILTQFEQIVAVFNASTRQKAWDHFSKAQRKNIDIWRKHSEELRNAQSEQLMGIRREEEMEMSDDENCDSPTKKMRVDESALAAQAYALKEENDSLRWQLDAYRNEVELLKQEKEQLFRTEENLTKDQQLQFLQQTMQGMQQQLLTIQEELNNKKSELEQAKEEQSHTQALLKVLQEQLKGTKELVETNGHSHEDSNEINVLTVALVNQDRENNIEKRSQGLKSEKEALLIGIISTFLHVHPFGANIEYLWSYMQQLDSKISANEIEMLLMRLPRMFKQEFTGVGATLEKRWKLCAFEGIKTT", "experiment": "NADH oxidase activity of isolated plasma membrane vesicles", "format": "biochemical", "details": "EGCg dose-response, FIG. 2A", "description": "Cultured cells were collected by centrifugation for 6-15 min at 175-1000×g. The cell pellets were resuspended in 0.2 mM EDTA in 1 mM NaHCO3 in an approximate ratio of 1 ml per 10^8 cells and incubated on ice for 10-30 min to swell the cells. […] To estimate breakage, the cells were monitored by light microscopy before and after homogenization. At least 90% cell breakage without breakage of nuclei was achieved routinely.\nThe homogenates were centrifuged for 10 min at 175×g to remove unbroken cells and nuclei and the supernatant was centrifuged a second time at 1.4×10^6 g·min (e.g., 1 h at 23,500×g) to prepare a plasma membrane-enriched microsome fraction. The supernatant was discarded and the pellets were resuspended in 0.2 M potassium phosphate buffer in a ratio of ˜1 ml per pellet from 5×10^8 cells. […] The purity of the plasma membrane was determined to be >90% by electron microscope morphometry. […]\nNADH oxidase activity was determined as the disappearance of NADH measured at 340 nm in a reaction mixture containing 25 mM Tris-Mes buffer (pH 7.2), 1 mM KCN to inhibit low levels of mitochondrial oxidase activity, and […] at 37° C. with stirring. Activity was measured using a Hitachi U3210 or SLM Aminco DW2000 spectrophotometer with continuous recording over two intervals of 5 min each. […]"}, "[2]": {"system": "BT-20 human mammary adenocarcinoma cells", "experiment": "Effect on intact cells in culture (growth, morphology, DAPI)", "format": "cell-based", "description": "BT-20 human breast adenocarcinoma cells were cultured in Eagle's minimal essential medium nonessential amino acids and Earle's balanced salts supplement with 10% fetal bovine serum. Media were renewed as for MCF-10A cells. […] The coverslips were rinsed and the cells fixed in methanol followed by addition of fluorescent dye 4′,6-diamidino-2-phenylindole (DAPI) as described (Wolvetang et al., 1994, FEBS Lett. 339:40-44). Cells were observed and photographed at a primary magnification of 400×."}, "tNOX": {"system": "tNOX", "experiment": "Inhibition of tNOX activity of sera pooled from patients with cancer", "format": "biochemical, human", "description": "NADH oxidase activity was determined as the disappearance of NADH measured at 340 nm in a reaction mixture containing 25 mM Tris-Mes buffer (pH 7.2), 1 mM KCN to inhibit low levels of mitochondrial oxidase activity, and […] at 37° C. with stirring. Activity was measured using a Hitachi U3210 or SLM Aminco DW2000 spectrophotometer with continuous recording over two intervals of 5 min each. A millimolar extinction coefficient of 6.22 was used to determine specific activity.\nAuthentic EGCg (Sigma) was used as the standard.\nAll chemicals were from Sigma (St. Louis, Mo.) unless otherwise specified. EGF was from mouse, culture grade, from Upstate Biotechnology Inc. (Lake Placid, N.Y.). Tea infusions were prepared by sequential steeping of ca. 2-g bags of tea (Lipton) in 10 ml of water for 10 min each. At the end of the infusion, bags were pressed to remove liquid."}, "CHO cells": {"system": "CHO cells", "experiment": "Growth of CHO cells", "format": "cell-based", "details": "EGCg"}, "[3]": {"system": "MCF-10A human mammary epithelial (non-cancer) cells", "experiment": "Effect on intact cells in culture (growth, morphology, DAPI)", "format": "cell-based"}, "[4]": {"system": "4T1 metastatic mouse mammary cancer cells", "experiment": "Killing of 4T1 metastatic mouse mammary cancer cells in culture", "format": "cell-based", "details": "EGCg 10^−7 M, EC 10^−4 M, alone or combined"}, "[5]": {"system": "HeLa (human cervical carcinoma) cells", "experiment": "Effect on intact cells in culture (growth, morphology, DAPI)", "format": "cell-based", "details": "for IC50: read-out: EGCg concentration for 50% growth arrest, FIG. 8", "description": "HeLa (ATCC CCL2) cells were grown in 175 cm^2 flasks in Minimal Essential Medium (Gibco), pH 7.4, at 37° C. with 10% bovine calf serum (heat-inactivated), plus 50 mg/l gentamycin sulfate (Sigma). […] The coverslips were rinsed and the cells fixed in methanol followed by addition of fluorescent dye 4′,6-diamidino-2-phenylindole (DAPI) as described (Wolvetang et al., 1994, FEBS Lett. 339:40-44). Cells were observed and photographed at a primary magnification of 400×. HeLa (ATCC CCL2) cells were grown in 150 cm^2 flasks in Minimal Essential Medium (Gibco), pH 7.4, at 37° C. with 10% bovine calf serum (heat-inactivated), plus 50 mg/l gentamicin sulfate (Sigma)."}, "[6]": {"details": "10 μM EGCg added at t=0, 96 h, FIG. 4"}, "[7]": {"details": "10^−6 M EGCg twice daily for 96 h"}},
  "note": "Entries after “also recorded” stand apart in the source; their conditions may differ. Where two headings read alike, the source gives them in different places.",
  "data": [
    {"substance": "(−) - epigallocatechin gallate [EGCg]", "values": [
      {"measurement": "Effect on NADH oxidase activity", "setting": "[1]", "value": "without effect"},
      {"measurement": "Fate of treated cells", "setting": "[2]; [6]", "value": "did not recover and died; also recorded: stopped growing and died"},
      {"measurement": "Reduction of cell diameter", "setting": "[2]; [7]", "value": "about 25%"},
      {"measurement": "Reduction of cell number", "setting": "[2]; [7]", "value": "about 25%"},
      {"measurement": "Reduction of cell volume", "setting": "[2]; [7]", "value": 50, "unit": "%"},
      {"measurement": "Response of the cell line", "setting": "[2]; 10^−6 M EGCg, 72 h", "value": "no response"},
      {"measurement": "Condensed chromatin (DAPI staining)", "setting": "[2]; 10 or 50 μM EGCg, 96 h, FIG. 5", "value": "characteristic of apoptosis"},
      {"measurement": "EC50", "setting": "tNOX", "value": 2, "unit": "µM"},
      {"measurement": "EGCg", "setting": "tNOX; EGCg content at the EC50", "value": 1, "unit": "µg/mL"},
      {"measurement": "Growth of CHO cells", "setting": "CHO cells", "value": "much less affected"},
      {"measurement": "Fate of treated cells", "setting": "[3]; [6]", "value": "quickly recovered and eventually grew normally; also recorded: recovered fully"},
      {"measurement": "Growth rate and cell diameters", "setting": "[3]; [7]", "value": "unaffected or slightly increased"},
      {"measurement": "Response of the cell line", "setting": "[3]; 10^−6 M EGCg, 72 h", "value": "no response"},
      {"measurement": "Growth of cells", "setting": "[3]; EGCg, unaffected except at very high doses of 10^−4 M, FIG. 2C", "value": "unaffected; also recorded: much less affected"},
      {"measurement": "Increase in cell number cm^−2 over 72 h · 10^2", "setting": "[4]", "value": 520, "unit": "cm^−2 · 10^2"},
      {"measurement": "Fate of treated cells", "setting": "[5]; [6]", "value": "did not recover and died; also recorded: stopped growing and died"},
      {"measurement": "Reduction of cell diameter", "setting": "[5]; [7]", "value": "about 25%"},
      {"measurement": "Reduction of cell number", "setting": "[5]; [7]", "value": "about 25%"},
      {"measurement": "Reduction of cell volume", "setting": "[5]; [7]", "value": 50, "unit": "%"},
      {"measurement": "Response of the cell line", "setting": "[5]; 10^−6 M EGCg, 72 h", "value": "no response"},
      {"measurement": "Condensed chromatin (DAPI staining)", "setting": "[5]; 10 or 50 μM EGCg, 96 h, FIG. 5", "value": "characteristic of apoptosis"},
      {"measurement": "Growth of HeLa cells", "setting": "[5]; EGCg", "value": "almost completely inhibited"},
      {"measurement": "IC50", "setting": "[5]; 72 h, in the absence of EC", "value": 10, "unit": "µM"},
      {"measurement": "IC50", "setting": "[5]; 72 h, in the presence of 10^−4 M EC", "value": 0.1, "unit": "µM"}
    ]}
  ]
}
